# Assays:
# Type in all cases: cell-based, human
# [1] = tested on: KRAS G12C mutant NCI-H358 cells; assay: Cell proliferation inhibition experiment, 3D spheroid, CellTiter-Glo, NCI-H358; conditions: Homo sapiens, NCI-H358, 120 h, NCI-H358 (KRAS G12C mutant) 3D spheroid, 5 days with compound, CellTiter-Glo; read-out: H358 IC50
# Summary of the method: (§1)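 Luminescence (CellTiter-Glo, 30 min incubation) was read after 5 days of compound treatment of overnight-formed spheroids of 800 H358 or 400 A549 cells in 2% FBS medium. Inhibition relative to DMSO and blank controls was fitted with a four-parameter model to yield IC50.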
# [2] = tested on: A549 cells (KRAS G12S mutant); assay: Cell proliferation inhibition experiment, 3D spheroid, CellTiter-Glo, A549; conditions: Homo sapiens, A549, 120 h, A549 (KRAS G12S mutant) 3D spheroid, 5 days with compound, CellTiter-Glo; read-out: A549 IC50
# Summary of the method: as §1
# [3] = tested on: KRAS G12C mutant MIA PaCa-2 cells; assay: Cell proliferation inhibition experiment, 3D spheroid, CellTiter-Glo, MIA PaCa-2; conditions: Homo sapiens, MIA PaCa-2, 120 h, 3D cell model in 384-well spheroid plate, 5 days, CellTiter-Glo; read-out: MIA-PaCa2 IC50
# Summary of the method: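 200 MIA PaCa-2 cells/well grown overnight as 3D spheroids, then exposed to 3.16-fold compound dilutions (0.1% DMSO final) for 5 days. Viability read by CellTiter-Glo luminescence; inhibition calculated against DMSO and medium-only controls, and IC50 fitted by four-parameter model.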
SMILES,IC50 [1],IC50 [2],IC50 [3]
"C=CC(=O)N1CCN2C(=O)c3c(N4[C@@H]5CC[C@H]4COC5)nc(-c4c(O)cccc4F)c(Cl)c3OC[C@H]2C1 [Z38, (6aR)-8-acryloyl-1-((1R,5S)-3-oxa-8-azabicyclo[3.2.1]octan-8-yl)-4-chloro-3-(2-fluoro-6-hydroxyphenyl)-6,6a,7,8,9,10-hexahydro-12H-pyrazino[2,1-c]pyrido[3,4-f][1,4]oxazepin-12-one]",55 nM,> 10 µM,88 nM
"C=CC(=O)N1CCN2C(=O)c3c(N4CCCC4)nc(-c4c(O)cccc4F)c(Cl)c3OC[C@H]2C1 [Z11, (6aR)-8-acryloyl-4-chloro-3-(2-fluoro-6-hydroxyphenyl)-1-(pyrrolidin-1-yl)-6,6a,7,8,9,10-hexahydro-12H-pyrazino[2,1-c]pyrido[3,4-f][1,4]oxazepin-12-one]",42 nM,9.34 µM,64 nM
"C=CC(=O)N1CCN2C(=O)c3c(Nc4c(C)ccnc4C(C)C)nc(-c4ccccc4F)c(Cl)c3OC[C@H]2C1 [Z8, (R)-8-acryloyl-4-chloro-3-(2-fluorophenyl)-1-((2-isopropyl-4-methylpyridin-3-yl)amino)-6,6a,7,8,9,10-hexahydro-12H-pyrazino[2,1-c]pyrido[3,4-f][1,4]oxazepin-12-one]",51 nM,5.09 µM,232 nM
"C=CC(=O)N1CCN2C(=O)c3c(N4CCSCC4)nc(-c4c(O)cccc4F)c(Cl)c3OC[C@H]2C1 [Z264, (6aR)-8-acryloyl-4-chloro-3-(2-fluoro-6-hydroxyphenyl)-1-thiomorpholino-6,6a,7,8,9,10-hexahydro-12H-pyrazino[2,1-c]pyrido[3,4-f][1,4]oxazepin-12-one]",85 nM,9.48 µM,98 nM
"C=CC(=O)N1CCN2C(=O)c3c(OCC4CCN(C)CC4)nc(-c4c(O)cccc4F)c(Cl)c3OC[C@H]2C1 [Z40, (6aR)-8-acryloyl-1-((1-methylpiperidin-4-yl)methoxy)-4-chloro-3-(2-fluoro-6-hydroxyphenyl)-6,6a,7,8,9,10-hexahydro-12H-pyrazino[2,1-c]pyrido[3,4-f][1,4]oxazepin-12-one]",91 nM,> 30 µM,57 nM

# These reach a lower IC50 [1]. Values come first.
IC50 [1],IC50 [2],IC50 [3],SMILES
40 nM,> 1 µM,57 nM,"C=CC(=O)N1CCN2C(=O)c3c(N4CCOC5(CCC5)C4)nc(-c4c(O)cccc4F)c(Cl)c3OC[C@H]2C1 [Z36, (6aR)-8-acryloyl-4-chloro-3-(2-fluoro-6-hydroxyphenyl)-1-(5-oxa-8-azaspiro[3.5]nonan-8-yl)-6,6a,7,8,9,10-hexahydro-12H-pyrazino[2,1-c]pyrido[3,4-f][1,4]oxazepin-12-one]"
35 nM,> 30 µM,63 nM,"C=CC(=O)N1CCN2Cc3c(Nc4c(C)ccnc4C(C)C)nc(-c4c(O)cccc4F)c(Cl)c3OC[C@H]2C1 [Z19, 1-((6aR)-4-chloro-3-(2-fluoro-6-hydroxyphenyl)-1-((2-isopropyl-4-methylpyridin-3-yl)amino)-6a,7,9,10-tetrahydro-12H-pyrazino[2,1-c]pyrido[3,4-f][1,4]oxazepin-8(6H)-yl)prop-2-en-1-one]"
23 nM,11.3 µM,95 nM,"C=CC(=O)N1CCN2C(=O)c3c(Nc4c(C)ccnc4C(C)C)nc(-c4c(O)cccc4F)c(F)c3OC[C@H]2C1 [Z9, (6aR)-8-acryloyl-4-fluoro-3-(2-fluoro-6-hydroxyphenyl)-1-((2-isopropyl-4-methylpyridin-3-yl)amino)-6,6a,7,8,9,10-hexahydro-12H-pyrazino[2,1-c]pyrido[3,4-f][1,4]oxazepin-12-one]"
25 nM,> 10 µM,52 nM,"C=CC(=O)N1CCN2C(=O)c3c(N4CCOCC4(C)C)nc(-c4c(O)cccc4F)c(Cl)c3OC[C@H]2C1 [Z70, (6aR)-8-acryloyl-4-chloro-1-(3,3-dimethylmorpholino)-3-(2-fluoro-6-hydroxyphenyl)-6,6a,7,8,9,10-hexahydro-12H-pyrazino[2,1-c]pyrido[3,4-f][1,4]oxazepin-12-one]"
